Experimental data published in patent US20060035925A1, “SUBSTITUTED 4H-CHROMENES AND ANALOGS AS ACTIVATORS OF CASPASES AND INDUCERS OF APOPTOSIS AND THE USE THEREOF” (Cytovia, Inc., priority 1999, published 2006).
Where two headings read alike, the source gives them in different places.

Experiments:
[1] = test system: Human breast cancer cell line ZR-75-1; test: Caspase cascade activation assay (N-(Ac-DEVD)-N'-ethoxycarbonyl-R110 fluorogenic substrate) in ZR-75-1 cells; type: cell-based; details: ZR-75-1 cells; for EC50: 24 h incubation, sigmoidal dose-response, read-out: Caspase potency EC50 (nM) ZR-75-1; for Caspase activity (Ratio) ZR-75-1: 24 h incubation with compound, ratio of net RFU (T=3 h) of test compound to control
Description: (§1) Human breast cancer cell lines T-47D and ZR-75-1 were grown according to media component mixtures designated by American Type Culture Collection +10% FCS (Invitrogen Corporation), in a 5% CO2-95% humidity incubator at 37° C. T-47D and ZR-75-1 cells were maintained at a cell density between 30 and 80% confluency at a cell density of 0.1 to 0.6×10^6 cells/ml. Cells were harvested at 600×g and resuspended at 0.65×10^6 cells/mL into appropriate media +10% FCS. An aliquot of 45 μl of cells was added to a well of a 96-well microtiter plate containing 5 μl of a 10% DMSO in RPMI-1640 media solution containing 0.16 to 10 μM of 2-amino-3-cyano-4-(3-bromo-4,5-dimethoxyphenyl)-4H-indolo[7,6-b]pyran (Example 42) or other test compound (0.016 to 1 μM final). An aliquot of 45 μl of cells was added to a well of a 96-well microtiter plate containing 5 μl of a 10% DMSO in RPMI-1640 media solution without test compound as the control sample. The samples were mixed by agitation and then incubated at 37° C. for 24 h in a 5% CO2-95% humidity incubator. After incubation, the samples were removed from the incubator and 50 μl of a solution containing 20 μM of N-(Ac-DEVD)-N′-ethoxycarbonyl-R110 (SEQ ID NO:1) fluorogenic substrate (Cytovia, Inc.; WO99/18856), 20% sucrose (Sigma), 20 mM DTT (Sigma), 200 mM NaCl (Sigma), 40 mM Na PIPES buffer pH 7.2 (Sigma), and 500 μg/ml lysolecithin (Calbiochem) was added. The samples were mixed by agitation and incubated at room temperature. Using a fluorescent plate reader (Model 1420 Wallac Instruments), an initial reading (T=0) was made approximately 1-2 min after addition of the substrate solution, employing excitation at 485 nm and emission at 530 nm, to determine the background fluorescence of the control sample. After the 3 h incubation, the samples were read for fluorescence as above (T=3 h).
(§2) The Relative Fluorescence Unit values (RFU) were used to calculate the sample readings as follows: RFU(T=3h)−Control RFU(T=0)=Net RFU(T=3h)
(§3) The activity of caspase cascade activation was determined by the ratio of the net RFU value for 2-amino-3-cyano-4-(3-bromo-4,5-dimethoxyphenyl)-4H-indolo[7,6-b]pyran or other test compound to that of control samples. The EC50 (nM) was determined by a sigmoidal dose-response calculation (Prism 2.0, GraphPad Software Inc.).

[2] = test system: Human breast cancer cell line T-47D; test: Caspase cascade activation assay (N-(Ac-DEVD)-N'-ethoxycarbonyl-R110 fluorogenic substrate) in T-47D cells; type: cell-based; details: for Caspase activity (Ratio) T-47D: 24 h incubation with compound, ratio of net RFU (T=3 h) of test compound to control; for EC50: 24 h incubation, sigmoidal dose-response, read-out: Caspase potency EC50 (nM) T-47D
Description: as §1, §2, §3

SMILES	EC50 ([1]; Homo sapiens, ZR-75-1, 24 h) [nM]	Caspase activity (Ratio) ZR-75-1 [1]	Caspase activity (Ratio) T-47D [2]	EC50 ([2]; Homo sapiens, T47D, 24 h) [nM]	EC50 [1] [nM]	EC50 [2] [nM]
COc1ccc2c(c1)OC(N)=C(C#N)C2c1cncc(Br)c1 (centres unmarked) [Example 33, 2-Amino-3-cyano-4-(5-bromo-3-pyridyl)-7-methoxy-4H-chromene]	7	10.4	7.0	7		
Cc1cncc(C2C(C#N)=C(N)Oc3cc(N)ccc32)c1 (centres unmarked) [Example 34, 2,7-Diamino-3-cyano-4-(5-methyl-3-pyridyl)-4H-chromene]	43	5.6	4.7	107		
Cc1cncc(C2C3=CC=C4N=CC=C4C3OC(N)=C2C#N)c1 (centres unmarked) [Example 35, 2-Amino-3-cyano-4-(5-methyl-3-pyridyl)-4H-indolo[4,5-b]pyran]	8	5.5	6.9	3		
N#CC1=C(N)OC2C3=CC=NC3=CC=C2C1c1cncc(Br)c1 (centres unmarked) [Example 36, 2-Amino-3-cyano-4-(5-bromo-3-pyridyl)-4H-indolo[4,5-b]pyran]	3	2.9	5.9	10		
N#CC1=C(N)Oc2cc(N)ccc2C1c1cncc(Br)c1 (centres unmarked) [Example 37, 2,7-Diamino-3-cyano-4-(5-bromo-3-pyridyl)-4H-chromene]	31	3.4	6.4	57		
COc1cncc(C2C(C#N)=C(N)Oc3cc(N)ccc32)c1 (centres unmarked) [Example 39, 2,7-Diamino-3-cyano-4-(5-methoxy-3-pyridyl)-4H-chromene]	177	14	8.4	283		
COc1cncc(C2C(C#N)=C(N)Oc3cc(OC)ccc32)c1 (centres unmarked) [Example 40, 2-Amino-3-cyano-7-methoxy-4-(5-methoxy-pyridin-3-yl)-4H-chromene]	16.9	8.9	7.9	27.4		
COc1cncc(C2C3=CC=C4N=CC=C4C3OC(N)=C2C#N)c1 (centres unmarked) [Example 41, 2-Amino-3-cyano-4-(5-methoxy-pyridin-3-yl)-4H-indolo[4,5-b]pyran]	6.6	7.2	6.8	13.9		
COc1cc(C2C3=CC=C4C=CN=C4C3OC(N)=C2C#N)cc(Br)c1OC (centres unmarked) [Example 42, 2-Amino-3-cyano-4-(3-bromo-4,5-dimethoxyphenyl)-4H-indolo[7,6-b]pyran]	25	13.1	7.6	30		
COc1cccc(C2C3=CC=C4C=CN=C4C3OC(N)=C2C#N)c1 (centres unmarked) [Example 43, 2-Amino-3-cyano-4-(3-methoxyphenyl)-4H-indolo[7,6-b]pyran]	81.9	5.9	6.5	143		
COc1cccc(C2C(C#N)=C(N)Oc3c2ccc(N)c3N)c1 (centres unmarked) [Example 44, 3-Cyano-2,7,8-triamino-4-(3-methoxyphenyl)-4H-chromene]	138	9.6	7.0	256		
COc1cc(C2C(C#N)=C(N)Oc3c2ccc(N)c3N)cc(Br)c1OC (centres unmarked) [Example 45, 3-Cyano-2,7,8-triamino-4-(3-bromo-4,5-dimethoxyphenyl)-4H-chromene]	35.4	11.9	6.0	41.8		
COc1cccc(C2C3=CC=C4N=CC=C4C3OC(N)=C2C#N)c1 (centres unmarked) [Example 46, 2-Amino-3-cyano-4-(3-methoxyphenyl)-4H-indolo[4,5-b]pyran]	26	7.1	6.4	62	26.3	61.8
Cc1cc2c(cc1Cl)C(c1ccccc1)C(C#N)=C(N)O2 (centres unmarked) [Example 47, 2-Amino-6-chloro-3-cyano-7-methyl-4-phenyl-4H-chromene]	552	7.3	1.9	> 1000		
COc1cc(C2C(C#N)=C(N)Oc3cc(N(C)C)ccc32)cc(Br)c1O (centres unmarked) [Example 48, 2-Amino-4-(3-bromo-4-hydroxy-5-methoxyphenyl)-3-cyano-7-dimethylamino-4H-chromene]	23.8	6.1	10.5	36.8		
COc1cc(C2C(C#N)=C(N)Oc3cc(N)ccc32)cc(Br)c1O (centres unmarked) [Example 49, 3-Cyano-4-(3-bromo-4-hydroxy-5-methoxyphenyl)-2,7-diamino-4H-chromene]	35.9	5.8	10.1	67.7		
COc1cc(C2C3=CC=C4N=CC=C4C3OC(N)=C2C#N)cc(Br)c1O (centres unmarked) [Example 50, 2-Amino-4-(3-bromo-4-hydroxy-5-methoxyphenyl)-3-cyano-4H-indolo[4,5-b]pyran]	14.8	10.6	10.1	16.5		
COc1cc(C2C3=CC=C4C=CN=C4C3OC(N)=C2C#N)cc(Br)c1O (centres unmarked) [Example 51, 2-Amino-4-(3-bromo-4-hydroxy-5-methoxyphenyl)-3-cyano-4H-indolo[7,6-b]pyran]	18.6	6.7	11.5	36.8		
COc1cc(OC)cc(C2C3=CC=C4C=CN=C4C3OC(N)=C2C#N)c1 (centres unmarked) [Example 52, 2-Amino-3-cyano-4-(3,5-dimethoxyphenyl)-4H-indolo[7,6-b]pyran]	22.7	9.9	11.8	26		
N#CC1=C(N)OC2C(=CC=C3C=CN=C32)C1c1cccc(C#N)c1 (centres unmarked) [Example 53, 2-Amino-3-cyano-4-(3-cyano-phenyl)-4H-indolo[7,6-b]pyran]	26.4	7.0	10.1	79.7		
N#CC1=C(N)Oc2c(ccc3cc[nH]c23)C1c1cccc(C(F)(F)F)c1 (centres unmarked) [Example 54, 2-Amino-3-cyano-4-(3-trifluromethyl-phenyl)-4H-indolo[7,6-b]pyran]		7.5	7.3		216	314
Cc1cncc(C2C3=CC=C4C=CN=C4C3OC(N)=C2C#N)c1 (centres unmarked) [Example 55, 2-Amino-3-cyano-4-(5-methyl-pyridin-3-yl)-4H-indolo[7,6-b]pyran]	4	7.2	7.4	15.3		
N#CC1=C(N)OC2C3=CC=NC3=CC=C2C1c1ccccc1 (centres unmarked) [Example 56, 2-Amino-3-cyano-4-phenyl-4H-indolo[4,5-b]pyran]	157	7.7	8.3	252		
N#CC1=C(N)OC2C3=CC=NC3=CC=C2C1c1cncc(C#N)c1 (centres unmarked) [Example 57, 2-Amino-3-cyano-4-(5-cyano-pyridin-3-yl)-4H-indolo[4,5-b]pyran]	27.9	7.3	7.2	58		
